{"source": "patent US20200400650A1", "about": "“METHODS FOR DECONTAMINATING CIRCUITS FOR PRODUCING GLUCOSE POLYMERS AND HYDROLYSATES OF GLUCOSE POLYMERS” (Roquette Freres, priority 2012, published 2020)", "key": {"hTLR4 receptor": {"target": "T1, hTLR4 receptor (Homo sapiens, UniProt O00206+Q9Y6Y9)", "T1 construct": "host or cells: HEK-Blue hTLR4 (HEK293-derived, SEAP reporter)", "T1 sequence (O00206 24-839)": "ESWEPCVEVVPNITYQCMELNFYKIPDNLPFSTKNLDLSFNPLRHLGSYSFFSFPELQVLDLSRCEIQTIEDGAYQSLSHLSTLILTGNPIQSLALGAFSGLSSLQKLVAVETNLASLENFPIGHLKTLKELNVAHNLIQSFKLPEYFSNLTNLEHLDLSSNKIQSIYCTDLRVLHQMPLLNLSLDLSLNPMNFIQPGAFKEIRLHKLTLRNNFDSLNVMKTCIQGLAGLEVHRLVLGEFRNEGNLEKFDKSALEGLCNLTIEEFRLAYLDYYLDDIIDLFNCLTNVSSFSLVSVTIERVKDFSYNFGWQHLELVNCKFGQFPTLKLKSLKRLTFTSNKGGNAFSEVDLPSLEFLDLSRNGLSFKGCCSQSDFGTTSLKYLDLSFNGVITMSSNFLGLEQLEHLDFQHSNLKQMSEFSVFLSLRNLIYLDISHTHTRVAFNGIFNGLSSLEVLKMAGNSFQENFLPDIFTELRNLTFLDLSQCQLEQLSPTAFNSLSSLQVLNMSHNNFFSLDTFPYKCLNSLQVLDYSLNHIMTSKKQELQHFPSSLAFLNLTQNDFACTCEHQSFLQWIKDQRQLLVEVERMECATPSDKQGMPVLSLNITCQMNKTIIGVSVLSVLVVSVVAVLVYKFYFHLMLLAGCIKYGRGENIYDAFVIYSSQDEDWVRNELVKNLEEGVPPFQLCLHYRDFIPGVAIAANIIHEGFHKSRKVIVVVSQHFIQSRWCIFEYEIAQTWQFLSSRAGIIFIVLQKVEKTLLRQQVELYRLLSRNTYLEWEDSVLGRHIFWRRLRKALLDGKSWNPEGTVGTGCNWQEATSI", "T1 sequence (Q9Y6Y9 17-160 limits assumed)": "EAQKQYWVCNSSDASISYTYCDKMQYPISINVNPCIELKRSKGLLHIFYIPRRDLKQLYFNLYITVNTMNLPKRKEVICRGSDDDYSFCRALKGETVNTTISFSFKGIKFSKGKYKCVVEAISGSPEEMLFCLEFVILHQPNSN", "experiment": "HEK-Blue hTLR4 cell response test (SEAP reporter activity)", "assay_type": "cell-based", "description": "(§1) The cell lines, in particular HEK-Blue™ (InvivoGen), are lines modified by stable transfection with a vector encoding an innate immunity receptor, in particular human (h) receptors. They are also cotransfected with the reporter gene, in particular a reporter gene producing SEAP, the synthesis of which is under the direct control of the signaling pathway associated with the receptor overexpressed. Preferably, this reporter gene encodes a colored or fluorescent protein or a protein of which the activity can be measured with or without substrate. […] The use of these lines makes it possible to target certain families of molecules of microbial origin according to the receptor expressed. Preferably, cell lines expressing either hTLR2 or hTLR4 or hNOD2 are used. In addition, a control line which expresses no innate immunity receptor is also used.\n(§2) For the tests according to the present invention, four lines are preferably used: • HEK-Blue™ hTLR2 line: this line expressing the hTLR2 receptor responds specifically to TLR2 agonists (PGNs and lipopeptides especially). […]\n(§3) The dose-response curves are produced with standard agonist molecules: LPS, PGN, LTA, zymosan and MDP. The Raw-Blue™ and HEK-Blue™ TLR2, TLR4, NOD2 and Null lines are incubated with increasing concentrations of agonists, and the cell response is measured by quantifying the SEAP activity (FIGS. 1-5). […]"}, "hTLR2 receptor": {"target": "T2, hTLR2 receptor (Homo sapiens, UniProt O60603)", "T2 construct": "host or cells: HEK-Blue hTLR2 (HEK293-derived, SEAP reporter)", "T2 sequence (O60603 19-784 limits assumed)": "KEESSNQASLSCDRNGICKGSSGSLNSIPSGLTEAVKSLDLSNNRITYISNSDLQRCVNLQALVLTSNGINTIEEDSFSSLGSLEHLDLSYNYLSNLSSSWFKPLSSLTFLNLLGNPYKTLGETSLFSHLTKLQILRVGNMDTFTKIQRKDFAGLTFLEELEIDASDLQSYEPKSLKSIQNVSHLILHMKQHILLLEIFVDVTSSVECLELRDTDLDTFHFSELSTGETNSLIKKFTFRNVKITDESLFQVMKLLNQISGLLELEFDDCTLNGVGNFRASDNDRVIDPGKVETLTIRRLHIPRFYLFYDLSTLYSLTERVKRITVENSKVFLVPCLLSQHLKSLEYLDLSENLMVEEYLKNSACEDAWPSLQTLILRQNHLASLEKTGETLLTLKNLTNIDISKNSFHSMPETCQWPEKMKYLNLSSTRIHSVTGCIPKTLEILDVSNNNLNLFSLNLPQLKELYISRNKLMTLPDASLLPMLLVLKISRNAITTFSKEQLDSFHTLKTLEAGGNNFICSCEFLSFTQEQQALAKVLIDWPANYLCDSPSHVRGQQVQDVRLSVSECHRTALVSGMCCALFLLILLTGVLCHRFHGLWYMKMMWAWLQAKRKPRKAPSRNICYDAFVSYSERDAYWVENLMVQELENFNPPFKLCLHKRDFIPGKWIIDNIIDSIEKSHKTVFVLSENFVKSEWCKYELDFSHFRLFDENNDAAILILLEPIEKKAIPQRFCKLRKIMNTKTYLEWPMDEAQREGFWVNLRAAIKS", "experiment": "HEK-Blue hTLR2 cell response test (SEAP reporter activity)", "assay_type": "cell-based", "description": "as §1, §2, §3"}, "hNOD2 receptor": {"target": "T3, hNOD2 receptor (Homo sapiens, UniProt Q9HC29)", "T3 construct": "host or cells: HEK-Blue hNOD2 (HEK293-derived, SEAP reporter)", "T3 sequence (Q9HC29 whole entry)": "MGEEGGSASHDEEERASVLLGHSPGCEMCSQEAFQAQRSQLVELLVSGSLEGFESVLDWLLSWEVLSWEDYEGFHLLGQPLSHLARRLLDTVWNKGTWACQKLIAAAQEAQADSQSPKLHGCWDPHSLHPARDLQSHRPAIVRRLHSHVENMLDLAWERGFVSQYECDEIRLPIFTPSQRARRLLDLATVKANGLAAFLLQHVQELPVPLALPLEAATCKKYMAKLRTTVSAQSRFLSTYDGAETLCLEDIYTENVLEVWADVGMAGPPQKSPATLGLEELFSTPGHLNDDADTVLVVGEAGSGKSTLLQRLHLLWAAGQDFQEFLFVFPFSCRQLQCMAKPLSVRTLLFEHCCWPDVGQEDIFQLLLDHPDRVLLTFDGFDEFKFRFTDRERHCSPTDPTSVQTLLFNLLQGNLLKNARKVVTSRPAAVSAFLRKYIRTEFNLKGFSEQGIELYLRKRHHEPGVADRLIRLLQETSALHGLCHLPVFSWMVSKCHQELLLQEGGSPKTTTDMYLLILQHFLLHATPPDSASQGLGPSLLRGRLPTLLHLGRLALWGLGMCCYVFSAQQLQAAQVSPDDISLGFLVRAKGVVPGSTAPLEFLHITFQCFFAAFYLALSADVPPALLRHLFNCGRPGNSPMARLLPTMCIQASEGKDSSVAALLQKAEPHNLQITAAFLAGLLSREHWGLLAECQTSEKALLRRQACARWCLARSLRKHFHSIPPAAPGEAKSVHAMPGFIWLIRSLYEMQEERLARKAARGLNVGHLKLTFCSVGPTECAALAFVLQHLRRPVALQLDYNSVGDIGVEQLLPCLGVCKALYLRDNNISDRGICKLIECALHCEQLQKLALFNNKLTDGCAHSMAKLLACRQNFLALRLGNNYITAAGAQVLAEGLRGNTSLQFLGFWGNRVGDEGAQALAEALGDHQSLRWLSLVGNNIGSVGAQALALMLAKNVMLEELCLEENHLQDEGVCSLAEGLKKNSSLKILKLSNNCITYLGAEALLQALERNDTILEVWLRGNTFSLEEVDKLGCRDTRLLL", "experiment": "HEK-Blue hNOD2 cell response test (SEAP reporter activity)", "assay_type": "cell-based", "conditions": "increasing concentrations of agonist", "description": "as §1, §2, §3"}, "Raw-Blue™ line": {"system": "Raw-Blue™ line", "experiment": "Raw-Blue cell inflammatory response test (SEAP reporter activity)", "assay_type": "cell-based, mouse", "description": "The Raw-Blue™ line is a line of mouse macrophages transfected with a reporter gene producing a secreted form of alkaline phosphatase (SEAP: secreted embryonic alkaline phosphatase), the transcription of which is under the direct control of the inflammatory signaling pathways. The advantage of this line is that it naturally expresses virtually all the innate immunity receptors, including the TLR2, TLR4 and NOD2 receptors. Thus, these cells will respond to the majority of inflammatory contaminants, and the response will be monitored by measuring the enzymatic activity of the SEAP produced. Preferably, this line is used in the test at a cell density of approximately 0.5×10^6 cells/well. The bringing of the preparation of glucose polymers or of hydrolysates thereof into contact with the cells lasts approximately 16 to 24 h.\nThe dose-response curves are produced with standard agonist molecules: LPS, PGN, LTA, zymosan and MDP. The Raw-Blue™ and HEK-Blue™ TLR2, TLR4, NOD2 and Null lines are incubated with increasing concentrations of agonists, and the cell response is measured by quantifying the SEAP activity (FIGS. 1-5).\nFor the cell tests, the samples are diluted to 1/10 in the cell culture medium (final concentration: 3.2% (w/v)). […]"}, "[1]": {"system": "Raw-Blue™ and HEK-Blue™ lines", "experiment": "Assessment by sample of the inflammatory activities from the combined cell tests", "assay_type": "cell-based", "conditions": "overall assessment, FIG. 11", "protocol": "The objective of these tests is to determine the pro-inflammatory reactivity and the nature of the contaminants present in the glucose polymer matrices and the batch of glucose polymer hydrolysate.\nThe analyses are carried out on: • Raw-Blue™ line: any contaminants with high reactivity for PGNs, • HEK-Blue™ hTLR2 line: high reactivity for PGNs, • HEK-Blue™ hTLR4 line: high reactivity for LPSs, • HEK-Blue™ hNOD2 line: MDP and PGN depolymerization products, • HEK-Blue™ Null2 line: control for absence of cell toxicity."}, "[2]": {"conditions": "background statement; cited from earlier work"}, "[3]": {"conditions": "increasing concentrations of agonist, SEAP activity"}}, "note": "“Also recorded” adds a separate entry of the source."}
{"molecule": "CC(=O)N[C@H]1C(O)O[C@H](CO)[C@@H](O)[C@@H]1O[C@H](C)C(=O)N[C@@H](C)C(=O)N[C@H](CCC(=O)O)C(N)=O", "note": "(mixture of isomers) [MDP, muramyl dipeptide]", "values": [{"measurement": "HEK-Blue hTLR4 cell response to standard agonists", "setting": "hTLR4 receptor; [3]", "value": "no reactivity"}, {"measurement": "HEK-Blue hTLR2 cell response to standard agonists", "setting": "hTLR2 receptor; [3]", "value": "no reactivity"}, {"measurement": "HEK-Blue hNOD2 cell response to standard agonists", "setting": "hNOD2 receptor", "value": "strong reactivity"}, {"measurement": "Raw-Blue cell response to standard agonists", "setting": "Raw-Blue™ line; [3]", "value": "do not respond"}]}
{"molecule": "O.O=C[C@H](O)[C@@H](O)[C@H](O)[C@H](O)CO", "note": "[LYCADEX®, dextrose monohydrate]", "values": [{"measurement": "HEK-TLR4 cell response induced by matrix", "setting": "hTLR4 receptor; nonfiltered sample, 3.2% (w/v)", "value": "do not trigger a significant response"}, {"measurement": "Assessment of inflammatory activity by sample", "setting": "[1]", "value": "low-strength inflammatory activity"}, {"measurement": "HEK-TLR2 cell response induced by matrix", "setting": "hTLR2 receptor; nonfiltered sample, 3.2% (w/v), monohydrate", "value": "do not trigger responses; also recorded: only barely or not at all active"}, {"measurement": "Raw cell response induced by matrix", "setting": "Raw-Blue™ line; nonfiltered sample, 3.2% (w/v)", "value": "trigger an inflammatory response"}]}
{"molecule": "formyl-Met-Leu-Phe tripeptide [f-MLP]", "values": [{"measurement": "Induction of a cytokine response per se", "setting": "[2]", "value": "incapable of inducing a cytokine response per se"}]}
